According to patent US5668128A, “Aziridine derivatives, their production and use” (Takeda Chemical Industries, Ltd., priority 1994, dated 1997):
Where a name gives a salt, the structure may show the parent alone.

Legend:
[1] = biological target: T1, human recombinant cathepsin L (Homo sapiens, UniProt P07711); test: Determination of cathepsin L inhibitory activity; assay type: biochemical; conditions: pH 5.5, 37° C., 20 minutes, Z-Phe-Arg-7MCA substrate; read-out: Inhibitory activity potency IC50 (ng/ml) Cathepsin L (converted)
T1 construct: they were identified as a precursor of human cathepsin L and a product processed therefrom, estimated from these molecular weights; made in house; host or cells: mouse myeloma Sp2/0 cells transformed with pTBN-HCLneo (Sp-HCL26); purified from serum-free culture supernatant on CM-Sephadex C-50 and Mono S
T1 sequence (P07711 114-333): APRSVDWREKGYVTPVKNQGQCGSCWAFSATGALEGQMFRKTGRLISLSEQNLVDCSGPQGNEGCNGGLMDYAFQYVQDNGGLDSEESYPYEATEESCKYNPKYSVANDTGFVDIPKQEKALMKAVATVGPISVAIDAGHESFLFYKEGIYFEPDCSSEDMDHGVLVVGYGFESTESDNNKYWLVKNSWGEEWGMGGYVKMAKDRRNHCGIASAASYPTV
Experimental: The bioactivities of the compounds of this invention are described below. The compounds [I] or salts thereof have activities of inhibiting cathepsin L and cathepsin B, and of potently inhibiting thiol protease. Their inhibitory activities against cathepsin L were determined by the methods described below.
Determination of cathepsin L inhibitory activity
To 75 μl of a reaction mixture containing 1 ng of human recombinant cathepsin L (as produced in Reference Examples 1 through 7 below), 2 μM of dithiothreitol (hereinafter abbreviated as DTT), 1 mM of ethylenediamine tetraacetate disodium salt, a 0.1M sodium acetate buffer solution (pH 5.5) and various concentrations of test samples, 25 μl of 20 μM benzyloxycarbonyl-L-phenylalanyl-L-arginine-4-methylcoumaryl-7-amide (hereinafter abbreviated as Z-Phe-Arg-7MCA, manufactured by Peptide Institute) was added to initiate the reaction. After incubation at 37° C. for 20 minutes, 100 μl of a reaction stopper solution containing 100 mM sodium monochloroacetate was added. The amount of liberated 4-methyl-7-aminocoumarin was determined at an excitation wavelength of 365 nm and a fluorescence wavelength of 450 nm, using a fluorophotometer (FCA:manufactured by Baxter Travenol). The sample concentration required to cause 50% inhibition was expressed as the IC50 value, with the fluorescence value obtained from the same reaction in the absence of the sample taken as 100%.

[2] = test system: bone resorption as enhanced by PTH (parathyroid hormone); test: Determination of bone resorption suppressive activity (PTH-stimulated mouse femur culture); assay type: cell-based, female BALB/c mice; conditions: 168 h, test compound 10 μg/ml, PTH 1 μM, cultured 7 days
Experimental: The compounds [I] or salts thereof of this invention show suppressive action against bone resorption as enhanced by PTH (parathyroid hormone), and the action was determined by method described below. Determination of bone resorption suppressive activity
Femurs were aseptically isolated from female BALB/c mice at 8-10 weeks of age. After the bone marrow cavity was washed with a Ham F12 medium containing 10 weight % thermally inactivated fetal calf serum, 100 unit/ml penicillin G and 100 unit/ml streptomycin (hereinafter referred to as culture broth), each femur was added to 1 ml of the culture broth and precultured for 3 hours at 37° C. in the presence of 5% carbon dioxide and 95% air. Each bone was transferred to 1 ml of the culture broth supplemented with PTH (manufactured by Peptide Institute, Inc., final concentration 1 μM) and the test compound (final concentration 10 μg/ml) and cultured for 7 more days, after which the total calcium content in the culture broth was determined using Calcium E-Test Wako (manufactured by Wako Pure Chemical Industries, Ltd.). The bone resorption suppressive activity of the test compound was calculated using the following equation.
Bone resorption suppressive activity (%)=100×(Cp-Cs)/(Cp-Cc)
Cc: Total calcium content in the culture broth containing neither PTH nor test compound
Cp: Total calcium content in the culture broth containing PTH […]

mice = test: Toxicity study; assay type: in vivo; conditions: intravenously or intraperitoneally, 1,000 mg/kg
Experimental: Compound 4 caused no death in mice when it was intravenously or intraperitoneally administered at 1,000 mg/kg.

Compound | IC50 [1] | activity at 10 µg/mL [2] | death in mice (mice)
NCCCCNC(=O)[C@H](Cc1ccccc1)NC(=O)[C@H]1N[C@@H]1C(=O)O [Compound 7, N-[N-[(2S,3S)-3-carboxyaziridine-2-carbonyl]-L-phenylalanyl]-1,4-diaminobutane] | 8.61 nM | 99% | –
CC(C)CCNC(=O)[C@H](Cc1ccccc1)NC(=O)[C@H]1N[C@@H]1C(=O)[O-].[Na+] [Compound 4, N-[N-[(2S,3S)-3-Carboxyaziridine-2-carbonyl]-L-phenylalanyl]isopentylamine sodium salt] | 13.5 nM | – | no death
CC(C)CCNC(=O)[C@H](Cc1ccccc1)NC(=O)[C@@H]1[C@@H](C(=O)O)N1C (stereo partly drawn) [Compound 43, N-[N-[(2S,3S)-N-Methyl-3-carboxyaziridine-2-carbonyl]-L-phenylalanyl]isopentylamine Sodium Salt] | 0.522 nM | – | –
CCN1[C@H](C(=O)O)[C@H]1C(=O)N[C@@H](Cc1ccccc1)C(=O)NCCC(C)C (stereo partly drawn) [Compound 45, N-[N-[(2S,3S)-N-Ethyl-3-Carboxyaziridine-2-carbonyl]-L-phenylalanyl]isopentylamine Sodium Salt] | 0.252 nM | – | –
